Measurements taken from patent US9809574B2, “Isoindoline or isoquinoline compounds, a process for their preparation and pharmaceutical compositions containing them” (LES LABORATOIRES SERVIER, priority 2013, dated 2017).
Where a name gives a salt, the structure may show the parent alone.

Assays:
[1] = molecular target: Bcl-2 protein (histag-Bcl-2, UniProtKB P10415) (Homo sapiens (Human), UniProt P10415); experiment: Inhibition of Bcl-2 by the fluorescence polarisation technique; assay type: binding; conditions: fluorescence polarisation test; incubation for 2 hours; read-out: IC50 (nM) Bcl-2 FP
Description: For partial inhibitors, the percentage fluorescence polarisation inhibition for a given concentration of the test compound is indicated.

[2] = system: RS4; 11 leukaemia cell line; experiment: In vitro cytotoxicity, Microculture Tetrazolium Assay (MTT); assay type: cell-based; conditions: Homo sapiens, 11 cells exposed for 48 hours
Protocol: The cytotoxicity studies were carried out on the RS4; 11 leukaemia cell line and on H146 small Cell Lung Carcinoma cell line. The cells are distributed onto microplates and exposed to the test compounds for 48 hours. The cell viability is then quantified by a colorimetric assay, the Microculture Tetrazolium Assay (Cancer Res., 1987, 47, 939-942).

Sequence of Bcl-2 protein (P10415 whole entry): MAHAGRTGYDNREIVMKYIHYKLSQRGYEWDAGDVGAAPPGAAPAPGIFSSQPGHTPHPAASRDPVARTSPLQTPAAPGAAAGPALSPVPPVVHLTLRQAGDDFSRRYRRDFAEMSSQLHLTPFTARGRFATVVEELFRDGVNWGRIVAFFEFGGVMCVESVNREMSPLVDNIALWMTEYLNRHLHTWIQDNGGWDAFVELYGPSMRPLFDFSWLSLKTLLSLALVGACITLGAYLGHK

Row | Structure (SMILES) | IC50 [1] [nM] | IC50 [2] [nM]
1 | Cc1c(C(=O)N(C)c2ccc(O)cc2)cc(-c2cc3c(cc2C(=O)N2Cc4ccccc4C[C@H]2CN2CCOCC2)CN(C(=O)CC24CC5CC(CC(C5)C2)C4)CC3)n1C [Example 798, 5-{2-[2-(Adamantan-1-yl)acetyl]-7-[(3S)-3-(morpholin-4-ylmethyl)-1,2,3,4-tetrahydroisoquinoline-2-carbonyl]-1,2,3,4-tetrahydroisoquinolin-6-yl}-N-(4-hydroxyphenyl)-N,1,2-trimethyl-1H-pyrrole-3-carboxamide] | 9.1 | 76
2 | CN(C(=O)c1cc(-c2cc3c(cc2C(=O)N2Cc4ccccc4C[C@H]2CN2CCOCC2)CN(S(=O)(=O)c2cccnc2)C3)n2c1CCCC2)c1ccc(O)cc1 [Example 22, N-(4-Hydroxyphenyl)-N-methyl-3-{6-[(3S)-3-(morpholin-4-ylmethyl)-1,2,3,4-tetrahydroisoquinoline-2-carbonyl]-2-(pyridine-3-sulfonyl)-2,3-dihydro-1H-isoindol-5-yl}-5,6,7,8-tetrahydroindolizine-1-carboxamide hydrochloride] | 70 | > 150
3 | Cc1c(C(=O)N(C)c2ccccc2)cc(-c2cc3c(cc2C(=O)N2Cc4ccccc4C[C@H]2CN2CCOCC2)CN(C(=O)Oc2cnc4c(ccn4C)c2)CC3)n1C [Example 634, 1-Methyl-1H-pyrrolo[2,3-b]pyridin-5-yl 6-{1,5-dimethyl-4-[methyl(phenyl)carbamoyl]-1H-pyrrol-2-yl}-7-[(3S)-3-(morpholin-4-ylmethyl)-1,2,3,4-tetrahydroisoquinoline-2-carbonyl]-1,2,3,4-tetrahydroisoquinoline-2-carboxylate] | 6.9 | 21
4 | Cc1c(C(=O)N(C)c2ccc(O)cc2)cc(-c2cc3c(cc2C(=O)N2Cc4ccccc4C[C@H]2C)CN(C(=O)Cc2ccc4c(c2)OCO4)C3)n1C [Example 172, 5-{2-[2-(2H-1,3-Benzodioxol-5-yl)acetyl]-6-[(3R)-3-methyl-1,2,3,4-tetrahydroisoquinoline-2-carbonyl]-2,3-dihydro-1H-isoindol-5-yl}-N-(4-hydroxyphenyl)-N,1,2-trimethyl-1H-pyrrole-3-carboxamide] | 3.4 | 28
5 | C[C@@H]1Cc2ccccc2CN1C(=O)c1cc2c(cc1-c1cc(C(=O)N(C)c3ccc(O)cc3)c3n1CCCC3)CCN(C(=O)C1(c3ccccc3)CC1)C2 [Example 109, N-(4-Hydroxyphenyl)-N-methyl-3-{7-[(3R)-3-methyl-1,2,3,4-tetrahydroisoquinoline-2-carbonyl]-2-(1-phenylcyclopropanecarbonyl)-1,2,3,4-tetrahydroisoquinolin-6-yl}-5,6,7,8-tetrahydroindolizine-1-carboxamide] | 8.6 | 89
6 | C[C@@H]1Cc2ccccc2CN1C(=O)c1cc2c(cc1-c1cc(C(=O)N(C)c3ccc(O)cc3)c3n1CCCC3)CN(C(=O)Cc1ccc(OC(F)(F)F)cc1)C2 [Example 26, N-(4-Hydroxyphenyl)-N-methyl-3-{6-[(3R)-3-methyl-1,2,3,4-tetrahydroisoquinoline-2-carbonyl]-2-{2-[4-(trifluoromethoxy)phenyl]acetyl}-2,3-dihydro-1H-isoindol-5-yl}-5,6,7,8-tetrahydroindolizine-1-carboxamide] | 30 | 86
7 | C[C@@H]1Cc2ccccc2CN1C(=O)c1cc2c(cc1-c1cc(C(=O)N(c3ccccc3)c3ccc(O)cc3)c3n1CCCC3)CCN(C(=O)Cc1ccccc1)C2 [Example 134, N-(4-hydroxyphenyl)-3-{7-[(3R)-3-methyl-1,2,3,4-tetrahydroisoquinoline-2-carbonyl]-2-(2-phenylacetyl)-1,2,3,4-tetrahydroisoquinolin-6-yl}-N-phenyl-5,6,7,8-tetrahydroindolizine-1-carboxamide] | 4.3 | 2
8 | C[C@@H]1Cc2ccccc2CN1C(=O)c1cc2c(cc1-c1cc(C(=O)N(C)c3ccc(O)cc3)c3n1CCCC3)CCN(C(=O)Cc1ccc(C#N)cc1)C2 [Example 53, 3-{2-[2-(4-Cyanophenyl)acetyl]-7-[(3R)-3-methyl-1,2,3,4-tetrahydroisoquinoline-2-carbonyl]-1,2,3,4-tetrahydroisoquinolin-6-yl}-N-(4-hydroxyphenyl)-N-methyl-5,6,7,8-tetrahydroindolizine-1-carboxamide] | 2.4 | 5
9 | CN(C(=O)c1cc(-c2cc3c(cc2C(=O)N2Cc4ccccc4C[C@H]2CN2CCOCC2)CN(S(=O)(=O)c2ccccc2)C3)n2c1CCCC2)c1ccc(O)cc1 [Example 19, 3-[2-(Benzenesulfonyl)-6-[(3S)-3-(morpholin-4-ylmethyl)-1,2,3,4-tetrahydroisoquinoline-2-carbonyl]-2,3-dihydro-1H-isoindol-5-yl]-N-(4-hydroxyphenyl)-N-methyl-5,6,7,8-tetrahydroindolizine-1-carboxamide hydrochloride] | 47 | 774
10 | C[C@@H]1Cc2ccccc2CN1C(=O)c1cc2c(cc1-c1cc(C(=O)N(C)c3ccc(O)cc3)c3n1CCCC3)CCN(C(=O)Cc1ccc(CN3CCOCC3)cc1)C2 [Example 129, N-(4-Hydroxyphenyl)-N-methyl-3-{7-[(3R)-3-methyl-1,2,3,4-tetrahydroisoquinoline-2-carbonyl]-2-{2-[4-(morpholin-4-ylmethyl)phenyl]acetyl}-1,2,3,4-tetrahydroisoquinolin-6-yl}-5,6,7,8-tetrahydroindolizine-1-carboxamide] | 3.3 | 39
11 | CN(C(=O)c1cc(-c2cc3c(cc2C(=O)N2Cc4ccccc4C[C@H]2CN2CCOCC2)CN(C(=O)Oc2ccc(-n4ccnc4)cc2)CC3)n2c1CCCC2)c1ccc(O)cc1 [Example 143, 4-(1H-imidazol-1-yl)phenyl 6-{1-[(4-hydroxyphenyl)(methyl)carbamoyl]-5,6,7,8-tetrahydroindolizin-3-yl}-7-[(3S)-3-(morpholin-4-ylmethyl)-1,2,3,4-tetrahydroisoquinoline-2-carbonyl]-1,2,3,4-tetrahydroisoquinoline-2-carboxylate] | 5.5 | 9.3
12 | C[C@@H]1Cc2ccccc2CN1C(=O)c1cc2c(cc1-c1cc(C(=O)N(C)c3ccc(O)cc3)c3n1CCCC3)CCN(C(=O)Cc1cccc(N3CCN(C)CC3)c1)C2 [Example 169, N-(4-Hydroxyphenyl)-N-methyl-3-{7-[(3R)-3-methyl-1,2,3,4-tetrahydroisoquinoline-2-carbonyl]-2-{2-[3-(4-methylpiperazin-1-yl)phenyl]acetyl}-1,2,3,4-tetrahydroisoquinolin-6-yl}-5,6,7,8-tetrahydroindolizine-1-carboxamide] | 3.3 | 3
13 | C[C@@H]1Cc2ccccc2CN1C(=O)c1cc2c(cc1-c1cc(C(=O)N(C)c3ccc(O)cc3)c3n1CCCC3)CCN(C(=O)Cc1ccc(CN(C)C)cc1)C2 [Example 144, 3-[2-(2-{4-[(Dimethylamino)methyl]phenyl}acetyl)-7-[(3R)-3-methyl-1,2,3,4-tetrahydroisoquinoline-2-carbonyl]-1,2,3,4-tetrahydroisoquinolin-6-yl]-N-(4-hydroxyphenyl)-N-methyl-5,6,7,8-tetrahydroindolizine-1-carboxamide] | 4.8 | 82
